Converted amounts (≈) assume the structure as drawn.
Columns and labels:
[1] = molecular target: Human immunodeficiency virus type 1 protease (Human immunodeficiency virus 1, UniProt Q72874); assay: Inhibition of human immunodeficiency virus (HIV) protease isolated enzyme assay
[2] = Antiviral activity was evaluated by whole cell based assay; format: functional
[3] = Solubility in 0.1 N HCl; format: physicochemical; details: read-out: S
[4] = system: Human immunodeficiency virus 1; assay: Compound was evaluated for potency against Double mutant HIV I84V/V82F strains; format: functional
[5] = system: Human immunodeficiency virus 1; assay: Compound was evaluated for potency against HIV single mutant I84V strain; format: functional
[6] = system: Human immunodeficiency virus 1; assay: Compound was evaluated for potency against […] HIV WT strain; format: functional

Row | Compound | Ki [1] [nM] | IC90 [2] [nM] | solubility [3] [µg/mL] | IC90 [4] [nM] | IC90 [5] [nM] | IC90 [6] [nM]
1 | CCCCCC[C@@H]1[C@H](O)[C@@H](O)[C@@H](CCCCCC)N(Cc2cccc(C(=O)Nc3nc4ccccc4[nH]3)c2)C(=O)N1Cc1cccc(C(=O)Nc2nc3ccccc3[nH]2)c1 | 0.35 | 86 | – | – | – | –
2 | O=C(Nc1nc2ccccc2[nH]1)c1cccc(CN2C(=O)N(Cc3cccc(C(=O)Nc4nc5ccccc5[nH]4)c3)[C@H](Cc3ccccc3)[C@H](O)[C@@H](O)[C@H]2Cc2ccccc2)c1 | – | 5 | 0.05 (≈ 0.0606 µM) | 21 | 5 | 5
3 | O=C(Nc1nc2ccccc2[nH]1)c1cccc(CN2C(=O)N(Cc3cccc(C(=O)Nc4nc5ccccc5[nH]4)c3)[C@H](C3CCCCC3)[C@H](O)[C@@H](O)[C@H]2C2CCCCC2)c1 | 0.29 | 14 | – | – | – | –
4 | CC[C@@H]1[C@H](O)[C@@H](O)[C@@H](CC)N(Cc2cccc(C(=O)Nc3nc4ccccc4[nH]3)c2)C(=O)N1Cc1cccc(C(=O)Nc2nc3ccccc3[nH]2)c1 | 4.5 | 570 | – | – | – | –
5 | CC[C@@H]1[C@H](O)[C@@H](O)[C@@H](Cc2ccccc2)N(Cc2cccc(C(=O)Nc3nc4ccccc4[nH]3)c2)C(=O)N1Cc1cccc(C(=O)Nc2nc3ccccc3[nH]2)c1 | 0.069 | 26 | – | – | – | –
6 | CN(C)c1ccc(C[C@@H]2[C@H](O)[C@@H](O)[C@@H](Cc3ccc(N(C)C)cc3)N(Cc3cccc(C(=O)Nc4nc5ccccc5[nH]4)c3)C(=O)N2Cc2cccc(C(=O)Nc3nc4ccccc4[nH]3)c2)cc1 | 0.038 | 8 | 13.2 (≈ 14.5 µM) | 22 | 8 | 8
7 | CCCCCC[C@@H]1[C@H](O)[C@@H](O)[C@@H](Cc2ccccc2)N(Cc2cccc(C(=O)Nc3nc4ccccc4[nH]3)c2)C(=O)N1Cc1cccc(C(=O)Nc2nc3ccccc3[nH]2)c1 | 0.046 | 9 | 118 (≈ 144 µM) | 24 | 24 | 9
8 | COc1ccc(C[C@@H]2[C@H](O)[C@@H](O)[C@@H](Cc3ccc(OC)cc3)N(Cc3cccc(C(=O)Nc4nc5ccccc5[nH]4)c3)C(=O)N2Cc2cccc(C(=O)Nc3nc4ccccc4[nH]3)c2)cc1 | 0.026 | 19 | – | – | – | –
9 | O=C(Nc1nc2ccccc2[nH]1)c1cccc(CN2C(=O)N(Cc3cccc(C(=O)Nc4nc5ccccc5[nH]4)c3)[C@H](Cc3ccc(OCc4ccccc4)cc3)[C@H](O)[C@@H](O)[C@H]2Cc2ccc(OCc3ccccc3)cc2)c1 | 3.7 | 125 | – | – | – | –
10 | CC(C)C[C@@H]1[C@H](O)[C@@H](O)[C@@H](CC(C)C)N(Cc2cccc(C(=O)Nc3nc4ccccc4[nH]3)c2)C(=O)N1Cc1cccc(C(=O)Nc2nc3ccccc3[nH]2)c1 | 0.3 | 59 | – | 12 | 20 | 26
11 | O=C(Nc1nc2ccccc2[nH]1)c1cccc(CN2C(=O)N(Cc3cccc(C(=O)Nc4nc5ccccc5[nH]4)c3)[C@H](Cc3ccc(O)cc3)[C@H](O)[C@@H](O)[C@H]2Cc2ccc(O)cc2)c1 | 0.035 | 35 | – | – | – | –
12 | Nc1ccc(C[C@@H]2[C@H](O)[C@@H](O)[C@@H](Cc3ccc(N)cc3)N(Cc3cccc(C(=O)Nc4nc5ccccc5[nH]4)c3)C(=O)N2Cc2cccc(C(=O)Nc3nc4ccccc4[nH]3)c2)cc1 | 0.016 | 10 | 8.3 (≈ 9.71 µM) | 76 | 23 | 10
13 | CC(C)C[C@@H]1[C@H](O)[C@@H](O)[C@@H](Cc2ccccc2)N(Cc2cccc(C(=O)Nc3nc4ccccc4[nH]3)c2)C(=O)N1Cc1cccc(C(=O)Nc2nc3ccccc3[nH]2)c1 | 0.038 | 10 | 160 (≈ 202 µM) | 82 | 9 | 10
